The results in this text go back to patent US8841257B2, “Inhibitors of STAT3 and uses thereof” (Board of Regents, The University of Texas System, priority 2009, dated 2014).

The target in one assay is T1, STAT1 (Homo sapiens, UniProt P42224).
T1 sequence (P42224 1-750): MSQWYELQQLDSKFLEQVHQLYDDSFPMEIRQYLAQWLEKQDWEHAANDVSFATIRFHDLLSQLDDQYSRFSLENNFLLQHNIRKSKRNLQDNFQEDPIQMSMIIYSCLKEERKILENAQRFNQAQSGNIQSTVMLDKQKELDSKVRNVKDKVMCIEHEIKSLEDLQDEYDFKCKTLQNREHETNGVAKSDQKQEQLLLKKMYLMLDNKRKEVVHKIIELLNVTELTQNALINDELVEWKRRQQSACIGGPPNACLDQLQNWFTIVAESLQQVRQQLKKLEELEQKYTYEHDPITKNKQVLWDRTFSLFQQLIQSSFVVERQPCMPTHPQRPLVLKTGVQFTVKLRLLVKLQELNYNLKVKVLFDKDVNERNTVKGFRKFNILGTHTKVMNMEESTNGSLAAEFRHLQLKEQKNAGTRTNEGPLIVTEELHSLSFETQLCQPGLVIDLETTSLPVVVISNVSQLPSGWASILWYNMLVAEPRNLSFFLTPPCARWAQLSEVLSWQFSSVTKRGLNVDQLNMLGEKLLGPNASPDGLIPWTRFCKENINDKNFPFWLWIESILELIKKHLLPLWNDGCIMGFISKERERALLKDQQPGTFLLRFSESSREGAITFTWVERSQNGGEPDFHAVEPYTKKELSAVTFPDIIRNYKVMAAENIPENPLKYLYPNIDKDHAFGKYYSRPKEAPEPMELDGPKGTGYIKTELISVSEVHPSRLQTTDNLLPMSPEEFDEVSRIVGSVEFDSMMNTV
In words: IFNγ-stimulated STAT1 phosphorylation in MDA-MB-468 cells. The class given is cell-based. Also noted: host or cells: MDA-MB-468 breast tumor cells. The following applies: for inhibition of Stat1 phosphorylation compared with Stat3 phosphorylation: 1.5 hr prodrug, then interferonγ 25 ng/mL 30 min; for fold less potent at inhibiting STAT1 than STAT3: MDA-MB-468 cells. As to the method: Effect of Prodrug on the phosphorylation of STAT1 in MDA-MB-468 breast tumor cells. MDA-MB-468 cells were prepared as above. Prodrugs were prepared as 10 mM stock solutions in DMSO and aliquots were added to the culture media to give the correct final concentrations. After 1.5 hr interferonγ was added at 25 ng/mL. After 30 minutes cells were collected and lysed and proteins were separated by PAGE and transferred to PVDF filters as above. Filters were probed for phosphoTyr701 Stat 1 and total Stat1 using appropriate antibodies and similar detection procedures to those used for Stat3.

For a further assay, the target named is STAT3 (Homo sapiens, UniProt P40763). In words: Inhibition of STAT3 phosphorylation in BT20 breast tumor cells (western blot). The class given is cell-based. Also noted: endogenous in cells; host or cells: BT20 breast tumor cells. As to the method:
Inhibition of STAT3 in BT20 Breast Tumor Cells. General procedure: 35 mm petri dishes were plated with 300,000 BT20 cells in 2 mL RPMI1640 media containing 10% FBS, […], streptomycin, and glutamine. Prodrugs were dissolved in DMSO and were added to the cells with fresh media at varying concentrations. After 2 h the cells were washed with ice cold phosphate buffered saline. Washed cells were treated with lysis buffer (50 mM Hepes, pH 7.4, 150 mM NaCl, 1.5 mM MgCl2, 1 mM EGTA, 100 mM NaF, 10 mM sodium pyrophosphate, 10% glycerol, 1% Triton X-100, 1 mM PMSF, 1 mM Na3VO4, 10 μg/mL leupeptin and 10 μg/mL aprotinin). Cell-free detergent extracts were centrifuged at 15,000 rpm in a microcentriguge for 30 min at 4° C. and the protein concentrations of the supernatants determined. Aliquots containing 12 μg of protein were separated on 8% SDS-PAGE and were transferred to PVDF filters. The filters were blocked with 5% bovine serum albumin and were probed with pStat3^Y705 antibody followed by secondary antibody, whose signal was detected with an enhanced chemiluminescence kit (ECL, Amersham, Chicago, Ill.). Filters were stripped with stripping buffer (62.5 mM Tris, pH 6.8, 2% SDS, and 0.1 M 2-mercaptoethanol) at 50° C. for 30 min. Filters were then probed with total Stat3 antibody and visualized with chemiluminescence as above.
Because DMSO is toxic, other formulations were evaluated for potential use in animal models. The compound of Example 1 was dissolved in EtOH, 20% (w/v) Trappsol (hydroxypropyl β-cyclodextran, pharmaceutical grade), or a liposomal formulation to a concentration of 5 mM. These formulations were given to cells at 0.1, 0.5, and 5 μM concentrations. At two hours, cells were lysed and pSTAT3 levels were determined by Western Blot (FIG. 3). Different formulations have little effect on inhibition of STAT3. The compound of Example 1 was dissolved in DMSO, EtOH, Trappsol, or as a 10 mol % mixture in dimyristoylphosphatidyl choline and applied to BT20 cell in culture. After two hours, cells were lysed and pSTAT3 levels determined by Western blot. To prepare liposomes a solution of 1.0 mg of the compound of Example 1, 7.2 mg of DMPC, 0.41 mg of Tween 20 in 1.0 mL of tert-butanol was lyophilized. A control lipid formulation of 7.2 mg of DMPC and 0.41 mg of Tween 20 in 1.0 mL of tert-butanol was lyophilized. These samples were mixed with 236 μL of H2O and were vortexed and sonicated for 5 min.
The compounds are selective for STAT3 over STAT1 in BT20 breast tumor cells. BT20 cells prepared as above and were treated with 5 μM of the compound of Example 1 for two hours then were treated with 25 ng/mL of interferon γ (IFNγ). […] (FIG. 4, bottom panel).
Time course of inhibition of STAT3 phosphorylation in BT20 cells. BT20 cells were plated as above and treated with the compounds from Examples 1 and 6 and western blots were performed at varying time intervals.
(Immunoblotting shows a protein as a band on a membrane.)

Sequence of STAT3 (P40763 whole entry): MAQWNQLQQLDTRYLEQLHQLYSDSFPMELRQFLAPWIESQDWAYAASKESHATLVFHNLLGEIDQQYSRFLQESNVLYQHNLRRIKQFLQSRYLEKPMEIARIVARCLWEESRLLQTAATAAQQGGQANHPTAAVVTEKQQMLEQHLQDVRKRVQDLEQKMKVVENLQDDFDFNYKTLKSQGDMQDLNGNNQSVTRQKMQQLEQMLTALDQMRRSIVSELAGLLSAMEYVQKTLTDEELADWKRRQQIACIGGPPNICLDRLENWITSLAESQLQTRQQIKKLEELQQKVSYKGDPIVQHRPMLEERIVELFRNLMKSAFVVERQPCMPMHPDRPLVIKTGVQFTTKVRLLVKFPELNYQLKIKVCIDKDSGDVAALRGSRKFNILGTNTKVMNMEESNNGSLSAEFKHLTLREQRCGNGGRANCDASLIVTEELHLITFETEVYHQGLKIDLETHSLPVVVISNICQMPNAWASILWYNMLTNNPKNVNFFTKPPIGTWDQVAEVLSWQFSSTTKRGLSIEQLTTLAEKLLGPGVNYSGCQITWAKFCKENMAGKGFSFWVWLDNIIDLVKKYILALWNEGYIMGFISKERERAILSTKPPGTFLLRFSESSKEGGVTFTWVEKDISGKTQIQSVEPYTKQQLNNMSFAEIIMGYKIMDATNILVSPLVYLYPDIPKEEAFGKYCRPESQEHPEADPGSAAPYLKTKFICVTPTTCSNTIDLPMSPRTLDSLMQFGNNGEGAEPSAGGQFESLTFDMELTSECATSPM

Consider `C/C(=C\C(=O)N[C@H]1CCc2cccc3c2N(C1=O)[C@H](C(=O)N[C@H](C)CCC(N)=O)C3)c1ccc(C(F)(F)P(=O)(OCOC(=O)C(C)(C)C)OCOC(=O)C(C)(C)C)cc1` [Example 1, (2E)-3-[4-[[bis[(2,2-dimethyl-1-oxopropoxy)methoxy]phosphinyl]difluoromethyl]phenyl]-but-2-enoyl-Haic-(R)-4-aminopentamide], for which, at STAT1, the “inhibition of Stat1 phosphorylation compared with Stat3 phosphorylation” value is “less effective”. Further, the “fold less potent at inhibiting STAT1 than STAT3” value on STAT1 is reported as “about 10 fold”. Besides, on STAT3 (5 μM, 2 h, then EGF 50 ng/mL, BT20), the “increase in pSTAT3 formation on EGF stimulation” value is reported as “inhibited the increase in pSTAT3 formation”. Also, at STAT3 (5 μM, BT-20 cells), the “phosphorylation of STAT3 at the indicated time points” value was “inhibit the phosphorylation of STAT3”. In addition, at STAT3 (BT20 cells), the “selectivity for STAT3 over STAT1 and AKT” value was “selective for STAT3 over STAT1 and AKT”. The “pSTAT3 inhibition compared with DMSO sample” value is listed as “did not inhibit as much as did the DMSO sample” at STAT3 (dissolved in EtOH, 0.1 μM, 2 h, BT20); “comparable” at STAT3 (dissolved in EtOH, 0.5 and 5 μM, 2 h, BT20); “did not inhibit as much as did the DMSO sample” on STAT3 (in 20% Trappsol HPB, 0.1 μM, 2 h, BT20); “comparable” on STAT3 (in 20% Trappsol HPB, 0.5 and 5 μM, 2 h, BT20); “inhibition comparable to DMSO” at STAT3 (liposomal preparation (DMPC/Tween 20), 2 h, BT20).

Regarding `CCCC[C@H](NC(=O)/C=C(\C)c1ccc(C(F)(F)P(=O)(OCOC(=O)C(C)(C)C)OCOC(=O)C(C)(C)C)cc1)C(=O)N1C[C@H]2CC2[C@H]1C(=O)N[C@@H](CCC(N)=O)[C@@H](C)OCc1ccccc1` (stereo partly drawn) [Example 16, (2E)-3-[4-[[bis[(2,2-dimethyl-1-oxopropoxy)methoxy]phosphinyl]difluoromethyl]phenyl]-but-2-enoyl-norleucinyl-(2S,3R,4S)-methanoprolinyl-(4S,5R)-4-amino-5-benzyloxyhexamide], at STAT1, the “inhibition of Stat1 phosphorylation compared with Stat3 phosphorylation” value is listed as “less effective” and the “fold less potent at inhibiting STAT1 than STAT3” value is “about 10 fold”.
